≈ marks a conversion by molar mass, not a printed value.
Assays:
Assay type in all cases: cell-based
[1] = test system: S. aureus ATCC 33591 (methicillin-resistant); assay: broth microdilution MIC assay, S. aureus 33591; details: Staphylococcus aureus, ATCC33591; S. aureus 33591, methicillin-resistant; read-out: MIC, S. aureus 33591
Procedure: (§1) To determine the ability of test compounds to inhibit the growth of bacterial strains, classic cell-based broth microdilution MIC assays were employed. MIC assays are performed according to CLSI methods except where otherwise noted (CLSI, 2011 and CLSI, 2009). The reference strains S. aureus ATCC 29213 (methicillin sensitive), S. aureus ATCC 33591 (methicillin-resistant), E. coli ATCC 25922 (wild-type/QC strain), P. aeruginosa ATCC 27853 (wild-type/QC strain), and the clinical isolate P. aeruginosa PA 8 were used to determine the ability of the exemplary carbapenem compounds to inhibit bacterial growth. An expanded panel of methicillin resistance S. aureus (MRSA) and Pseudomonas was also used to determine the ability of exemplary carbapenem compounds to inhibit bacterial growth across a broader representation of those species. To determine activity in MRSA and in addition to S. aureus ATCC 33591, S. aureus USA 300 and USA 600, some of the most common clones found to cause human infection, were also used. To further gauge the impact on the carbapenem compounds due to various resistance mechanisms in Pseudomonas, the following strains were included: P. aeruginosa 35151 (hyper-permeable strain), P. aeruginosa ΔmexAB-OprM (an efflux pump knockout), and P. aeruginosa Paβ-173 (a clinical isolate of reduced carbapenem susceptibility). Briefly, cryo-preserved bacterial cultures of clinical strains are streaked for isolation on appropriate agar medium, in this case Mueller Hinton II agar. Following incubation to allow formation of colonies, these plates are sealed with parafilm and stored refrigerated for up to two weeks. For preparation of assay inocula and to ensure low variability, at least 5 colonies are picked from the agar plates with an inoculating loop and aseptically transferred to a culture tube containing 3 mL of Mueller-Hinton Broth (supplemented with divalent cations to required levels based on Manufacturers' specification). The broth culture is grown for 3-5 hours at 37° C. with shaking at 200 rpm. Meanwhile, 2-fold serial dilutions of test compounds are conducted in a 96 well plate with a final volume of 75 μL per well at 2-fold the final desired concentration. After the dilution plates are set up the growing cultures are then diluted in a cuvette containing MH II broth and the optical density is measured at 600 nm. Inocula are diluted such that 75 μL of this culture in Mueller-Hinton Broth results in a starting bacterial concentration of 5×10^5 CFU/mL when added to the dilution plates. The plates are incubated 16-20 hours at 37° C. The MIC is read visually as the lowest concentration well with no bacterial growth.

S. aureus USA 300 = assay: broth microdilution MIC assay, S. aureus USA300; details: Staphylococcus aureus; S. aureus USA300 (MRSA); read-out: MIC, S. aureus USA300
Procedure: as §1

S. aureus USA 600 = assay: broth microdilution MIC assay, S. aureus USA600; details: Staphylococcus aureus; S. aureus USA600 (MRSA); read-out: MIC, S. aureus USA600
Procedure: as §1

[2] = test system: E. coli ATCC 25922 (wild-type/QC strain); assay: broth microdilution MIC assay, E. coli 25922; details: Escherichia coli, ATCC25922; read-out: MIC, E. coli 25922
Procedure: as §1

[3] = test system: P. aeruginosa ATCC 27853 (wild-type/QC strain); assay: broth microdilution MIC assay, P. aeruginosa 27853; details: Pseudomonas aeruginosa, ATCC27853; read-out: MIC, P. aeruginosa 27853
Procedure: as §1

[4] = test system: P. aeruginosa 35151 (hyper-permeable strain); assay: broth microdilution MIC assay, P. aeruginosa 35151; details: Pseudomonas aeruginosa, read-out: MIC, P. aeruginosa 35151
Procedure: as §1

[5] = test system: P. aeruginosa ΔmexAB-OprM (an efflux pump knockout); assay: broth microdilution MIC assay, P. aeruginosa ΔmexAB-OprM; details: Pseudomonas aeruginosa, read-out: MIC, P. aeruginosa ΔmexAB-OprM
Procedure: as §1

P. aeruginosa Paeβ-17 = assay: broth microdilution MIC assay, P. aeruginosa Paeβ-17; details: Pseudomonas aeruginosa, read-out: MIC, P. aeruginosa Paeβ-17
Procedure: as §1

C[C@@H](O)[C@H]1C(=O)N2C(C(=O)O)=C(SC3CN(C[C@H]4CCCN4)C3)[C@H](C)[C@H]12 [Example 32, (4R,5S,6S)-6-((R)-1-hydroxyethyl)-4-methyl-7-oxo-3-((1-(((R)-pyrrolidin-2-yl)methyl)azetidin-3-yl)thio)-1-azabicyclo[3.2.0]hept-2-ene-2-carboxylic acid]
MIC [1]: 8 to 32 µg/mL (≈ 21 to 83.9 µM) | MIC (S. aureus USA 300): 1 to 4 µg/mL (≈ 2.62 to 10.5 µM) | MIC (S. aureus USA 600): 1 to 4 µg/mL (≈ 2.62 to 10.5 µM) | MIC [2]: < 1 µg/mL | MIC [3]: 8 to 32 µg/mL (≈ 21 to 83.9 µM) | MIC [4]: < 1 µg/mL | MIC [5]: 1 to 4 µg/mL (≈ 2.62 to 10.5 µM) | MIC (P. aeruginosa Paeβ-17): 8 to 32 µg/mL (≈ 21 to 83.9 µM)

C[C@@H](O)[C@H]1C(=O)N2C(C(=O)O)=C(S[C@@H]3CCN(C[C@H]4CC[C@@H](NC(=N)N)CC4)C3)[C@H](C)[C@H]12 [Example 33, (4R,5S,6S)-3-(((R)-1-(((1S,4S)-4-guanidinocyclohexyl)methyl)pyrrolidin-3-yl)thio)-6-((R)-1-hydroxyethyl)-4-methyl-7-oxo-1-azabicyclo[3.2.0]hept-2-ene-2-carboxylic acid]
MIC [1]: 1 to 4 µg/mL (≈ 2.15 to 8.59 µM) | MIC (S. aureus USA 300): < 1 µg/mL | MIC (S. aureus USA 600): 1 to 4 µg/mL (≈ 2.15 to 8.59 µM) | MIC [2]: < 1 µg/mL | MIC [3]: 1 to 4 µg/mL (≈ 2.15 to 8.59 µM) | MIC [4]: < 1 µg/mL | MIC [5]: 1 to 4 µg/mL (≈ 2.15 to 8.59 µM) | MIC (P. aeruginosa Paeβ-17): 8 to 32 µg/mL (≈ 17.2 to 68.7 µM)

C[C@@H](O)[C@H]1C(=O)N2C(C(=O)O)=C(S[C@@H]3CCN([C@H]4CC[C@@H](NC(=N)N)CC4)C3)[C@H](C)[C@H]12 [Example 34, (4R,5S,6S)-3-(((R)-1-((1S,4S)-4-guanidinocyclohexyl)pyrrolidin-3-yl)thio)-6-((R)-1-hydroxyethyl)-4-methyl-7-oxo-1-azabicyclo[3.2.0]hept-2-ene-2-carboxylic acid]
MIC [1]: 1 to 4 µg/mL (≈ 2.21 to 8.86 µM) | MIC (S. aureus USA 300): < 1 µg/mL | MIC (S. aureus USA 600): 1 to 4 µg/mL (≈ 2.21 to 8.86 µM) | MIC [2]: < 1 µg/mL | MIC [3]: 1 to 4 µg/mL (≈ 2.21 to 8.86 µM) | MIC [4]: < 1 µg/mL | MIC [5]: 1 to 4 µg/mL (≈ 2.21 to 8.86 µM) | MIC (P. aeruginosa Paeβ-17): 8 to 32 µg/mL (≈ 17.7 to 70.9 µM)

C[C@@H](O)[C@H]1C(=O)N2C(C(=O)O)=C(S[C@@H]3CCN([C@@H]4CC[C@@H](N)C4)C3)[C@H](C)[C@H]12 [Example 35, (4R,5S,6S)-3-(((R)-1-((1R,3R)-3-aminocyclopentyl)pyrrolidin-3-yl)thio)-6-((R)-1-hydroxyethyl)-4-methyl-7-oxo-1-azabicyclo[3.2.0]hept-2-ene-2-carboxylic acid]
MIC [1]: 1 to 4 µg/mL (≈ 2.53 to 10.1 µM) | MIC (S. aureus USA 300): 1 to 4 µg/mL (≈ 2.53 to 10.1 µM) | MIC (S. aureus USA 600): 1 to 4 µg/mL (≈ 2.53 to 10.1 µM) | MIC [2]: < 1 µg/mL | MIC [3]: 1 to 4 µg/mL (≈ 2.53 to 10.1 µM) | MIC [4]: < 1 µg/mL | MIC [5]: 1 to 4 µg/mL (≈ 2.53 to 10.1 µM) | MIC (P. aeruginosa Paeβ-17): 8 to 32 µg/mL (≈ 20.2 to 80.9 µM)

C[C@@H](O)[C@H]1C(=O)N2C(C(=O)O)=C(S[C@@H]3CCN([C@H]4CC[C@@H](N)C4)C3)[C@H](C)[C@H]12 [Example 36, (4R,5S,6S)-3-(((R)-1-((1S,3R)-3-aminocyclopentyl)pyrrolidin-3-yl)thio)-6-((R)-1-hydroxyethyl)-4-methyl-7-oxo-1-azabicyclo[3.2.0]hept-2-ene-2-carboxylic acid]
MIC [1]: 1 to 4 µg/mL (≈ 2.53 to 10.1 µM) | MIC (S. aureus USA 300): 1 to 4 µg/mL (≈ 2.53 to 10.1 µM) | MIC (S. aureus USA 600): 1 to 4 µg/mL (≈ 2.53 to 10.1 µM) | MIC [2]: < 1 µg/mL | MIC [3]: 1 to 4 µg/mL (≈ 2.53 to 10.1 µM) | MIC [4]: < 1 µg/mL | MIC [5]: 1 to 4 µg/mL (≈ 2.53 to 10.1 µM) | MIC (P. aeruginosa Paeβ-17): 8 to 32 µg/mL (≈ 20.2 to 80.9 µM)

C[C@@H](O)[C@H]1C(=O)N2C(C(=O)O)=C(SC3CN(C4CCNC4)C3)[C@H](C)[C@H]12 (stereo partly drawn) [Example 37, (4R,5S,6S)-6-((R)-1-hydroxyethyl)-4-methyl-7-oxo-3-((1-(pyrrolidin-3-yl)azetidin-3-yl)thio)-1-azabicyclo[3.2.0]hept-2-ene-2-carboxylic acid]
MIC [1]: 8 to 32 µg/mL (≈ 21.8 to 87.1 µM) | MIC (S. aureus USA 300): 1 to 4 µg/mL (≈ 2.72 to 10.9 µM) | MIC (S. aureus USA 600): 1 to 4 µg/mL (≈ 2.72 to 10.9 µM) | MIC [2]: < 1 µg/mL | MIC [3]: 8 to 32 µg/mL (≈ 21.8 to 87.1 µM) | MIC [4]: < 1 µg/mL | MIC [5]: 1 to 4 µg/mL (≈ 2.72 to 10.9 µM) | MIC (P. aeruginosa Paeβ-17): 8 to 32 µg/mL (≈ 21.8 to 87.1 µM)

C[C@@H](O)[C@H]1C(=O)N2C(C(=O)O)=C(S[C@H]3C[C@H](NC4CCNCC4)C3)[C@H](C)[C@H]12 [Example 38, (4R,5S,6S)-6-((R)-1-hydroxyethyl)-4-methyl-7-oxo-3-(((1R,3R)-3-(piperidin-4-ylamino)cyclobutyl)thio)-1-azabicyclo[3.2.0]hept-2-ene-2-carboxylic acid]
MIC [1]: 8 to 32 µg/mL (≈ 20.2 to 80.9 µM) | MIC (S. aureus USA 300): 1 to 4 µg/mL (≈ 2.53 to 10.1 µM) | MIC (S. aureus USA 600): 1 to 4 µg/mL (≈ 2.53 to 10.1 µM) | MIC [2]: < 1 µg/mL | MIC [3]: 8 to 32 µg/mL (≈ 20.2 to 80.9 µM) | MIC [4]: < 1 µg/mL | MIC [5]: 1 to 4 µg/mL (≈ 2.53 to 10.1 µM) | MIC (P. aeruginosa Paeβ-17): 8 to 32 µg/mL (≈ 20.2 to 80.9 µM)

From patent US20230127944A1, “BROAD-SPECTRUM CARBAPENEMS” (priority 2019, published 2023)
